This passage reports melting point results from a melting point compilation (Tetko et al.).

A word on the melting point: it is the temperature, or range, at which the solid turns liquid. In turn, `CCOC(=O)c1sc2nc(C)nn2c1C` came in with a melting point of 87 to 89 °C. With `CC(=O)c1cnn(C)c1C` the figure was 47 to 49 °C. The result for `Cc1ccc(Cn2nc(C)c(C(=O)O)c2C)cc1` reads 134 to 136 °C; that for `Cc1ccc(-n2nc(C(=O)O)c3c2CCC3)cc1`, 224 to 226 °C; that for `Nc1ccccc1-c1[nH]nc2c1CCC2`, 128 to 130 °C.

The compound `COc1ccc(C(=O)O)cc1-c1ccnn1C` had a melting point of 225 to 227 °C. With `COc1ccc(C=O)cc1OCc1ccc([N+](=O)[O-])cc1` the figure was 109 to 111 °C; with `CNS(=O)(=O)N1CCc2ccccc2C1`, 88 to 90 °C; with `CC(C)c1n[nH]c(C(=O)O)c1Br`, 195 to 197 °C.

In the case of `CC(C)c1ncc(C(=O)O)s1`, the melting point was 133 to 135 °C. The result for `COC(=O)c1cc([N+](=O)[O-])c(C)cc1C` reads 57 to 59 °C; that for `COC(=O)c1cc(I)cc(S(=O)(=O)Cl)c1`, 67 to 69 °C. The result for `Oc1cccc(-c2nccc(Cl)n2)c1` reads 135 to 137 °C; that for `O=C(O)C1CCN(c2cncc3nnnn23)CC1`, 159 to 161 °C. For the compound `CN(C)C(=O)CNc1ccccc1`, the melting point lay within 114 to 116 °C. The result for `Cc1nc(N(C)C)sc1C=O` reads 116 to 118 °C; that for `O=C(O)CC1CCSCC1`, 69 to 71 °C; that for `CNCc1cc(Br)ccc1[N+](=O)[O-]`, 29 to 31 °C. In turn, `Nc1ccccc1C(=O)N1CCCCC1` came in with a melting point of 79 to 83 °C.

In turn, `NS(=O)(=O)CCc1ccccc1` registered a melting point of 122 to 124 °C.

Turning to `Cc1n[nH]c(C)c1S(=O)(=O)N1CCC(=O)CC1`, the melting point lay within 191 to 193 °C. The result for `Cc1oc(C)c(C(=O)O)c1Br` reads 189 to 191 °C; that for `Cc1c(NC(=O)CCCl)c(=O)n(-c2ccccc2)n1C`, 207 to 209 °C; that for `Cn1cccc1C(=O)N1CCNCC1`, 58 to 60 °C. With `O=C(CCl)N1CCCc2cc(S(=O)(=O)N3CCCC3)ccc21` the figure was 146 to 148 °C; with `O=C(NCc1cccc(Cl)c1)c1ccc(F)cc1`, 59 to 61 °C. `O=C(O)c1cnc2c(Br)cccc2c1O`: the melting point fell in the range of 276 to 278 °C. `NC(=S)C1CCCCC1` displayed a melting point of 115 to 117 °C. With `O=C(CCl)NCc1ccccc1CS(=O)(=O)N1CCOCC1` the figure was 118 to 120 °C; with `S=c1[nH][nH]c(=NCCc2cccs2)s1`, 82 to 84 °C.

`O=C(Nc1ccccc1C(=O)O)c1cccc(Br)c1` showed a melting point of 189 to 191 °C. `O=C(O)COCc1nc2ccccc2c(=O)[nH]1` had a melting point of 259 to 261 °C. The result for `CC(C)S(=O)(=O)Cc1ccc(N)cc1` reads 134 to 136 °C. The result for `CC(=O)N1CCN(Cc2ccc(C(=O)O)cc2)CC1` reads 229 to 231 °C; that for `O=C(O)c1ccc(-n2ccnc2)nn1`, 238 to 240 °C. With `CNCc1ccc(OC)c(O)c1` the figure was 141 to 143 °C; with `O=[N+]([O-])c1ccc(CO)c(Br)c1`, 81 to 83 °C. The compound `Cc1cc(Br)c(NC(=O)CCl)c(Br)c1` registered a melting point of 177 to 178 °C. With `Clc1ccc2c(c1)NCCS2` the figure was 110 to 112 °C.

`O=C(NCCCCl)C1CCCC1` had a melting point of 66 to 68 °C. `N#Cc1ccc(Oc2ccc(F)c(Cl)c2)c(F)c1` registered a melting point of 97 to 99 °C. With `O=C1CCSc2cc(F)c(F)cc21` the figure was 93 to 95 °C; with `CC(Oc1ccc(Br)cc1)C(=O)O` (stereo not drawn), 118 to 120 °C. Take `CN(CC(=O)O)C(=O)c1cc(Cl)nnc1Cl`: the melting point was 175 to 177 °C. The result for `ClCc1coc(-c2ccccc2)n1` reads 51 to 55 °C; that for `CC(N)(C(=O)O)c1ccc(Cl)cc1` (stereo not drawn), 297 to 299 °C; that for `CC(=O)c1cccc(N2CCCS2(=O)=O)c1`, 84 to 86 °C. As to `Clc1cccc(Nc2nc3ccccc3s2)c1`, the melting point fell in the range of 173 to 175 °C. `Cc1ccccc1C(=O)CC#N`: the melting point is 84 to 86 °C.

In turn, `CS(=O)(=O)c1cccs1` registered a melting point of 43 to 45 °C. With `N#Cc1ccc(Oc2ccc(C(=O)O)cc2)nc1` the figure was 246 to 248 °C; with `Cc1ccc(-n2nc(C)c(C(=O)O)n2)c(C)c1`, 178 to 180 °C; with `Cc1cc(C)c2c(C(=O)O)cc(C3CC3)nc2c1`, 217 to 219 °C. With `O=C(O)CCc1ccc([N+](=O)[O-])cc1[N+](=O)[O-]`, the melting point lay in the range of 124 to 126 °C.

`Cc1nn(C)c2ncc(S(=O)(=O)Cl)cc12` returned a melting point of 134 to 136 °C. The result for `CN1C(=O)Cc2cc(C(=O)CCl)ccc21` reads 199 to 201 °C; that for `Cc1cccc(-c2nnc(S)o2)c1`, 157 to 161 °C. In turn, `CCOc1cc(F)ccc1[N+](=O)[O-]` gave a melting point of 31 to 33 °C.

As for `Cc1ccc2ncc(C=O)n2c1`, the melting point fell in the range of 105 to 107 °C. With `O=C(CSc1ccccc1C(=O)O)NCC1CCCCC1` the figure was 118 to 120 °C. The result for `CC(C)(C)c1cc(NC(=O)CCl)on1` reads 95 to 97 °C. `NC(=S)c1ccc(N)cc1` gave a melting point of 189 to 191 °C. With `Nc1nc(-c2ccccc2)no1` the figure was 149 to 151 °C; with `CC(C)c1ccc(S(=O)(=O)Cc2ccoc2C(=O)O)cc1`, 156 to 158 °C; with `N#Cc1cccc(OCc2ccoc2C(=O)O)c1`, 177 to 179 °C. With `NC(CCN1CCCCC1)=NO`, the melting point was 137 to 139 °C. `O=C(O)C1(c2cccc(Cl)c2)CCC1` returned a melting point of 101 to 103 °C. The result for `NC(=S)NCc1ccc(F)cc1` reads 119 to 121 °C; that for `O=C(O)c1ccc2noc(-c3ccccc3)c2c1`, 242 to 244 °C; that for `CC(C)(C)OC(=O)N1CCN(C(=O)CN)CC1`, 95 to 97 °C.

As for `N#Cc1c(CCl)cn2ccccc12`, the melting point lay in the range of 143 to 145 °C. The compound `CCOc1ncccc1C(=O)O` gave a melting point of 90 to 92 °C. With `O=C(O)Cc1ccn(-c2ccccc2)n1`, the melting point lay within 99 to 101 °C. With `NC(=NO)c1cccc(Br)c1` the figure was 132 to 134 °C; with `N#Cc1ccc(OCCN)nc1`, 101 to 103 °C.

For the compound `O=C(O)c1ccccc1C(=O)N1CCCCC1`, the melting point fell in the range of 109 to 111 °C.

Compound `CNC1CC(=O)N(Cc2ccccc2)C1=O` (stereo not drawn) returned a melting point of 72 to 74 °C. The result for `O=C(O)c1ccc(F)c2ccsc12` reads 230 to 232 °C. With `Cc1ccc(C#N)c(Br)c1` the figure was 50 to 55 °C; with `O=C(NC1CCCCNC1=O)OCC(F)(F)F` (stereo not drawn), 199 to 201 °C; with `CN(C=O)c1ccc(C(=O)CCl)cc1`, 96 to 98 °C. With `C1CCC(NC2=NCCCS2)CC1` the figure was 112 to 114 °C.

As to `Cc1cc(C(=O)O)c(N)cc1F`, the melting point lay within 219 to 221 °C. As for `COC(=O)c1cc(N)c(Br)cc1F`, the melting point was in the range of 87 to 89 °C. With `CC(C)(C)OC(=O)NC(C)(C(=O)O)C1CC1` (stereo not drawn) the figure was 140 to 142 °C; with `CCCC1(C)NC(=O)NC1=O` (stereo not drawn), 123 to 125 °C. `Cc1cc(Cl)c(S(=O)(=O)Cl)cc1[N+](=O)[O-]`: the melting point was in the range of 129 to 131 °C.

As for `CN(C)Cc1ccc(C(=N)N)cc1`, the melting point was in the range of 124 to 126 °C.
